Laboratory results published in paper PMC10449631 (Nature Chemical Biology, 2023).
No end group written: not given here.

Target: T1, PaAP variant R194A (Pseudomonas aeruginosa, UniProt Q02PA2, R194A)
T1 construct: PaAP (WT, residues 27–536); His6 (TEV cleavable) (N, cleaved yes); made in house; host or cells: E. coli SHuffle T7
Test: biochemical
Description: To test this, we produced the PaAP variant R194A to eliminate a likely salt bridge between the peptide COOH and the guanidinium of the protein arginine side chain.
Inhibition assays were carried out with the following peptides: linear-[…] (PaAP C-terminal residues), cyclic-[…], N-acetylated and C-amidated […]. IC50 values were determined by varying peptide concentration at a fixed substrate concentration (fixed at KM, (S) = 2 mM, PaAP concentration was 100 nM). KI was determined by assaying multiple fixed inhibitor concentrations (1,000 nM, 500 nM, 250 nM, 100 nM, 50 nM, 25 nM and 10 nM) at varying substrate concentrations under standard reaction conditions with Leu-pNA as a substrate (outlined above). KI values were determined by fitting the data to equation (1) (Morrison’s equation):1 v=1−Et+I+KI−Et+I+KI^2−4EtIKI/2Et where v is the velocity, Et is the total enzyme concentration, I is the concentration of inhibitor and KI is the equilibrium dissociation constant for the inhibitor.

T1 sequence (Q02PA2 37-516, looked up, stated change not applied): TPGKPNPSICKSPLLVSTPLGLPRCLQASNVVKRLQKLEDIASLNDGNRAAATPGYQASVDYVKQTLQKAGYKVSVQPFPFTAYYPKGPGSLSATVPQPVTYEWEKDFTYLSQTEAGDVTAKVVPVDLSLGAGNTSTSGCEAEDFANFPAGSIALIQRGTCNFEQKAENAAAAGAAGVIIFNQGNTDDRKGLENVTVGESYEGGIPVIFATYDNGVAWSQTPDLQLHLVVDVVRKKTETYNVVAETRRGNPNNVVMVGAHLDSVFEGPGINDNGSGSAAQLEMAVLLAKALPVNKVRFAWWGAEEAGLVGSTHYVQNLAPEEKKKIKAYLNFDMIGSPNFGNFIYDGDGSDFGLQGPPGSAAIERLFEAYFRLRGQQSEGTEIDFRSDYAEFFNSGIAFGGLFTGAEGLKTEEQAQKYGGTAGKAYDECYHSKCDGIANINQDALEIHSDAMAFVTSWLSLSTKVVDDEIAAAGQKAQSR

**Q.** For ERWGHDFIK [linear-ERWGHDFIK], which IC50 is on record?
**A.** 306 µM
